In ChEMBL document CHEMBL5537187, “Discovery of N-(1-(6-Oxo-1,6-dihydropyrimidine)-pyrazole) Acetamide Derivatives as Novel Noncovalent DprE1 Inhibitors against Mycobacterium tuberculosis” (J Med Chem, 2024) one finds Activity data, which are given here for one compound.

The experiment concerns Mycolicibacterium smegmatis. Nature of the experiment: Antimycobacterial activity against Mycobacterium smegmatis overexpressing Mtb DprE1 assessed as inhibition of bacterial growth by resazurin dye based analysis. The experiment is classed as functional, organism-based. For orientation: Alamar Blue is a resazurin reagent that responds to reducing activity.

SMILES strings stand for the structures. Activity calls are given as the source filed them. The calls are words filed in the database; no cut-off is given here.

In the case of `CO[C@H]1/C=C/O[C@@]2(C)Oc3c(C)c(O)c4c(O)c(c(/C=N/N5CCN(C)CC5)c(O)c4c3C2=O)NC(=O)/C(C)=C\C=C\[C@H](C)[C@H](O)[C@@H](C)[C@@H](O)[C@@H](C)[C@H](OC(C)=O)[C@@H]1C` [RIFAMPIN], the outcome was Active.
